Test results published in patent US20240352010A1, “SUBSTITUTED 1,2,4-THIADIAZOLYL NICOTINAMIDES, SALTS OR N-OXIDES THEREOF AND THEIR USE AS HERBICIDALLY ACTIVE SUBSTANCES” (BayerAktiengesellschaft, priority 2021, published 2024).

What was measured:
Type in all cases: in vivo
[1] = tested on: Matricaria inodora (MATIN); assay: Herbicidal pre-emergence action, MATIN
Source text: (§1) Seeds of mono- and dicotyledonous weed plants were sown in plastic pots (double sowings with one species of mono- and one species of dicotyledonous weed plants per pot), in sandy loam, and covered with soil. The compounds according to the invention, formulated in the form of wettable powders (WP) or as emulsifiable concentrates (EC), were applied to the surface of the covering soil as an aqueous suspension or as an emulsion, with the addition of 0.5% of an additive, at an application rate of 600 litres of water per hectare (converted). Following treatment, the pots were placed in a greenhouse and kept under optimum growth conditions for the test plants. The visual grading of the damage to the test plants is carried out after ca. 3 weeks in comparison to untreated controls (herbicidal effect in percent (%): 100% effect=plants have died, 0% effect=as control plants). Seeds of mono- and dicotyledonous weed plants were sown in plastic pots (double sowings with one species of mono- and one species of dicotyledonous weed plants per pot), in sandy loam, and covered with soil. The compounds according to the invention, formulated in the form of wettable powders (WP) or as emulsifiable concentrates (EC), were applied to the surface of the covering soil as an aqueous suspension or as an emulsion, with the addition of 0.5% of an additive, at an application rate of 600 litres of water per hectare (converted). Following treatment, the pots were placed in a greenhouse and kept under optimum growth conditions for the test plants. The visual grading of the damage to the test plants is carried out after ca. 3 weeks in comparison to untreated controls (herbicidal effect in percent (%): 100% effect=plants have died, 0% effect=as control plants).

[2] = tested on: Amaranthus retroflexus (AMARE); assay: Herbicidal pre-emergence action, AMARE
Source text: as §1

Stellaria media (STEME) [3] = assay: Herbicidal pre-emergence action, STEME
Source text: as §1

[4] = tested on: Amaranthus retroflexus (AMARE); assay: Herbicidal post-emergence action, AMARE
Source text: (§2) Seeds of mono- and dicotyledonous weed plants were sown in plastic pots (double sowings with one species of mono- and one species of dicotyledonous weed plants per pot), in sandy loam, covered with soil and grown under controlled growth conditions. 2 to 3 weeks after sowing, the test plants were sprayed in the single-leaf stage. The compounds according to the invention, formulated in the form of wettable powders (WP) or as emulsifiable concentrates (EC), were sprayed onto the green plant parts as an aqueous suspension or as an emulsion, with the addition of 0.5% of an additive, at an application rate of 600 litres of water per hectare (converted). The test plants were placed in the greenhouse for ca. 3 weeks under optimum growth conditions, and then the effect of the preparations is assessed visually in comparison with untreated controls (herbicidal effect in percent (%): 100% effect=plants have died, 0% effect=as control plants). […]

Kochia scoparia (KCHSC) [5] = assay: Herbicidal post-emergence action, KCHSC
Source text: as §2

Veronica persica (VERPE) = assay: Herbicidal post-emergence action, VERPE
Source text: as §2

Stellaria media (STEME) [6] = assay: Herbicidal post-emergence action, STEME
Source text: as §2

Setaria viridis (SETVI) [7] = assay: Herbicidal pre-emergence action, SETVI
Source text: as §1

[8] = tested on: Matricaria inodora (MATIN); assay: Herbicidal post-emergence action, MATIN
Source text: as §2

Setaria viridis (SETVI) [9] = assay: Herbicidal post-emergence action, SETVI; settings: 1280 g/ha, assessed visually after ca. 3 weeks vs untreated controls (Table B7)
Source text: as §2

[10] = tested on: Digitaria sanguinalis (DIGSA); assay: Herbicidal post-emergence action, DIGSA; settings: 1280 g/ha, assessed visually after ca. 3 weeks vs untreated controls (Table B12)
Source text: (§3) Seeds of mono- and dicotyledonous weed plants were sown in plastic pots (double sowings with one species of mono- and one species of dicotyledonous weed plants per pot), in sandy loam, covered with soil and grown under controlled growth conditions. 2 to 3 weeks after sowing, the test plants were sprayed in the single-leaf stage. The compounds according to the invention, formulated in the form of wettable powders (WP) or as emulsifiable concentrates (EC), were sprayed onto the green plant parts as an aqueous suspension or as an emulsion, with the addition of 0.5% of an additive, at an application rate of 600 litres of water per hectare (converted). The test plants were placed in the greenhouse for ca. 3 weeks under optimum growth conditions, and then the effect of the preparations is assessed visually in comparison with untreated controls (herbicidal effect in percent (%): 100% effect=plants have died, 0% effect=as control plants).

Poa annua (POAAN) [11] = assay: Herbicidal pre-emergence action, POAAN
Source text: as §1

[12] = tested on: Abutilon theophrasti (ABUTH); assay: Herbicidal post-emergence action, ABUTH; settings: 1280 g/ha, assessed visually after ca. 3 weeks vs untreated controls (Table B1)
Source text: as §3

Poa annua (POAAN) [13] = assay: Herbicidal post-emergence action, POAAN
Source text: as §2

Kochia scoparia (KCHSC) [14] = assay: Herbicidal pre-emergence action, KCHSC; settings: 1280 g/ha, visual grading after ca. 3 weeks vs untreated controls (Table A4)
Source text: as §1

Lolium rigidum (LOLRI) = assay: Herbicidal pre-emergence action, LOLRI
Source text: as §1

[15] = tested on: Echinochloa crus-galli (ECHCG); assay: Herbicidal post-emergence action, ECHCG; settings: 1280 g/ha, assessed visually after ca. 3 weeks vs untreated controls (Table B3)
Source text: as §2

[16] = 320 g/ha, visual grading after ca. 3 weeks vs untreated controls (Table C3)
[17] = 1280 g/ha, visual grading after ca. 3 weeks vs untreated controls (Table A6)
[18] = 1280 g/ha, visual grading after ca. 3 weeks vs untreated controls (Table A11)
[19] = 320 g/ha, visual grading after ca. 3 weeks vs untreated controls (Table C6)
[20] = 1280 g/ha, visual grading after ca. 3 weeks vs untreated controls (Table A9)
[21] = 1280 g/ha, assessed visually after ca. 3 weeks vs untreated controls (Table B11)
[22] = 1280 g/ha, assessed visually after ca. 3 weeks vs untreated controls (Table B4)
[23] = 1280 g/ha, assessed visually after ca. 3 weeks vs untreated controls (Table B10)
[24] = 1280 g/ha, assessed visually after ca. 3 weeks vs untreated controls (Table B9)
[25] = 1280 g/ha, visual grading after ca. 3 weeks vs untreated controls (Table A8)
[26] = 1280 g/ha, assessed visually after ca. 3 weeks vs untreated controls (Table B6)
[27] = 320 g/ha, assessed visually after ca. 3 weeks vs untreated controls (Table D6)
[28] = 320 g/ha, assessed visually after ca. 3 weeks vs untreated controls (Table D4)
[29] = 1280 g/ha, visual grading after ca. 3 weeks vs untreated controls (Table A7)
[30] = 1280 g/ha, assessed visually after ca. 3 weeks vs untreated controls (Table B8)
[31] = 1280 g/ha, visual grading after ca. 3 weeks vs untreated controls (Table A5)

| Compound | herbicidal effect in percent, MATIN [1, 16] [%] | herbicidal effect in percent, MATIN [1, 17] [%] | herbicidal effect in percent, AMARE [2, 18] [%] | herbicidal effect in percent, STEME (Stellaria media (STEME) [3]; [19]) [%] | herbicidal effect in percent, STEME (Stellaria media (STEME) [3]; [20]) [%] | herbicidal effect in percent, AMARE [4, 21] [%] | herbicidal effect in percent, KCHSC (Kochia scoparia (KCHSC) [5]; [22]) [%] | herbicidal effect in percent, VERPE (Veronica persica (VERPE); [23]) [%] | herbicidal effect in percent, STEME (Stellaria media (STEME) [6]; [24]) [%] | herbicidal effect in percent, SETVI (Setaria viridis (SETVI) [7]; [25]) [%] | herbicidal effect in percent, MATIN [8, 26] [%] | herbicidal effect in percent, AMARE [4, 27] [%] | herbicidal effect in percent, POAAN (Poa annua (POAAN) [11]; [29]) [%] | herbicidal effect in percent, POAAN (Poa annua (POAAN) [13]; [30]) [%] | herbicidal effect in percent, KCHSC (Kochia scoparia (KCHSC) [14]) [%] | also measured |
| --- | --- | --- | --- | --- | --- | --- | --- | --- | --- | --- | --- | --- | --- | --- | --- | --- |
| COc1nccc(C2CC2(F)F)c1C(=O)Nc1ncns1 (stereo not shown) [Example I-001, 4-(2,2-difluorocyclopropyl)-2-methoxy-N-(1,2,4-thiadiazol-5-yl)pyridine-3-carboxamide] | 90 | 90 | – | – | – | – | – | – | – | – | – | – | – | – | – | – |
| O=C(Nc1ncns1)c1c(C2CC2(F)F)ccnc1F (stereo not shown) [Example I-002, 4-(2,2-difluorocyclopropyl)-2-fluoro-N-(1,2,4-thiadiazol-5-yl)pyridine-3-carboxamide] | 90 | 100 | 100 | 90 | 90 | 90 | 90 | 90 | 90 | – | – | – | – | – | – | – |
| CC1CC1c1ccnc(Cl)c1C(=O)Nc1ncns1 (stereo not shown) [Example I-004] | – | 90 | 100 | – | 90 | 100 | 90 | 90 | 100 | 90 | 100 | 100 | – | – | – | herbicidal effect in percent, SETVI (Setaria viridis (SETVI) [9]): 100%; herbicidal effect in percent, STEME (Stellaria media (STEME) [6]; [28]): 90% |
| O=C(Nc1ncns1)c1c(C2CC2)ccnc1C(F)(F)F [Example I-006] | 90 | 100 | 90 | 100 | 100 | 100 | 100 | 90 | 100 | 90 | – | 90 | 90 | 90 | 90 | herbicidal effect in percent, DIGSA [10]: 90%; herbicidal effect in percent, POAAN (Poa annua (POAAN) [11]; 320 g/ha, visual grading after ca. 3 weeks vs untreated controls (Table C4)): 90%; herbicidal effect in percent, ABUTH [12]: 90%; herbicidal effect in percent, LOLRI (Lolium rigidum (LOLRI); 320 g/ha, visual grading after ca. 3 weeks vs untreated controls (Table C2)): 90%; herbicidal effect in percent, LOLRI (Lolium rigidum (LOLRI); [31]): 90%; herbicidal effect in percent, KCHSC (Kochia scoparia (KCHSC) [5]; dosage printed 1280 g/ha in Table D1, assessed visually after ca. 3 weeks vs untreated controls): 90%; herbicidal effect in percent, STEME (Stellaria media (STEME) [6]; dosage printed 1280 g/ha in Table D4, assessed visually after ca. 3 weeks vs untreated controls): 90% |
| COc1nccc(C2CC2)c1C(=O)Nc1ncns1 [Example I-007] | – | – | 100 | 90 | 90 | – | – | – | – | – | – | – | 90 | – | – | – |
| O=C(Nc1ncns1)c1cnccc1C1CC1 [Example I-008] | – | – | 100 | 90 | 90 | 100 | 90 | 90 | 100 | – | 100 | 90 | 90 | 90 | 90 | herbicidal effect in percent, AMARE ([2]; 320 g/ha, visual grading after ca. 3 weeks vs untreated controls (Table C8)): 90% |
| C=C(C)c1ccnc(Cl)c1C(=O)Nc1ncns1 [Example I-009] | – | 100 | – | – | 90 | 90 | – | – | 90 | 100 | – | – | – | – | – | herbicidal effect in percent, SETVI (Setaria viridis (SETVI) [7]; 320 g/ha, visual grading after ca. 3 weeks vs untreated controls (Table C5)): 90% |
| O=C(Nc1nc(Br)ns1)c1c(C2CC2)ccnc1Cl [Example I-010] | 90 | 100 | 90 | – | 100 | 90 | – | 90 | 90 | – | 90 | – | – | 90 | 90 | herbicidal effect in percent, MATIN ([8]; 320 g/ha, assessed visually after ca. 3 weeks vs untreated controls (Table D2)): 90%; herbicidal effect in percent, POAAN (Poa annua (POAAN) [13]; 320 g/ha, assessed visually after ca. 3 weeks vs untreated controls (Table D3)): 90%; herbicidal effect in percent, ECHCG [15]: 90%; herbicidal effect in percent, LOLRI (Lolium rigidum (LOLRI); [31]): 90%; herbicidal effect in percent, VERPE (Veronica persica (VERPE); 320 g/ha, assessed visually after ca. 3 weeks vs untreated controls (Table D5)): 90%; herbicidal effect in percent, STEME (Stellaria media (STEME) [6]; [28]): 90% |
| Cc1nsc(NC(=O)c2c(C3CC3)ccnc2Cl)n1 [Example I-011] | 100 | 100 | – | – | 90 | – | – | 90 | 90 | – | – | – | – | – | – | – |
